Where “and” joins values, the source holds several entries; their conditions need not be identical. Equal entries are not always repeated. Entries after “also recorded” stand apart in the source; their conditions may differ. Values belong to the compound of their own block, whether it stands above or below them.
Key:
[1] = biological target: T1, recombinant human LAT1 (Homo sapiens, UniProt Q01650); assay: Inhibition of LAT1 mediated [3H]-His transport in proteoliposomes reconstituted with recombinant purified human LAT1; type: biochemical; parameters: Dose-response analysis, Mean / Dose-response analysis, single experiments: unit not given here; settings: for IC50: 5 μM [3H]-His, proteoliposomes containing 10 mM His, mean ± S.D., three experiments; for inhibition at 100 µM: 100 µM compound; for LAT1 inhibition, activity in words: 100 μM compound, [3H]-His uptake in proteoliposomes; for % Residual Activity: 100 µM concentration, n = 3, Table S6; for Dose-response analysis, single experiments: Exp. 1, Exp. 2, Exp. 3 in this order; for Dose-response analysis, Mean: mean of Exp. 1-3; for times more potent than 1: ratio of IC50 values versus 1 (BCH)
T1 construct: made in house; host or cells: E. coli
T1 sequence (Q01650 whole entry): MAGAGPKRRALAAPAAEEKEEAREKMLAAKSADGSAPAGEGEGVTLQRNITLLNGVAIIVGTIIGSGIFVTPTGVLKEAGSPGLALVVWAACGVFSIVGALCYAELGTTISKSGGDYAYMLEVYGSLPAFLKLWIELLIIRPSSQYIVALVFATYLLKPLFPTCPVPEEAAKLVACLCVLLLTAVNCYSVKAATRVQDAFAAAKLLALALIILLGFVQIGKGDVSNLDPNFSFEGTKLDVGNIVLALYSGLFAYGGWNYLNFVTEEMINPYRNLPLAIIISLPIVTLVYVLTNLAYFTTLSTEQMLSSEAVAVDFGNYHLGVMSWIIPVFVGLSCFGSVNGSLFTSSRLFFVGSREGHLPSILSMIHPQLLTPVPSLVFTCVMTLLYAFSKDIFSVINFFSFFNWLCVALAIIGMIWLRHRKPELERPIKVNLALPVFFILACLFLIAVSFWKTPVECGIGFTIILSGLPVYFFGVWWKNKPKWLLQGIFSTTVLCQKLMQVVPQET
Experimental: All 30 compounds were evaluated for their potency to inhibit LAT1 mediated histidine transport in proteoliposomes reconstituted with recombinant purified human LAT1 (see Methods). […]
Human LAT1 was over-expressed in E. coli and was purified as previously described. In brief, solubilized cell lysate was centrifuged (12,000× g, 10 min, 4 °C); supernatant was applied on a His-Trap HP column (5 mL Ni Sepharose) connected to ÄKTA start system. The column was equilibrated with 10 mL buffer (20 mM Tris HCl pH 8.0, 10% glycerol, 200 mM NaCl, 0.1% sarkosyl) prior to supernatant application. The column was washed with 10 mL buffer (20 mM Tris HCl pH 8.0, 10% glycerol, 200 mM NaCl, 0.05% DDM, and 2 mM DTE) and the protein was eluted with the same buffer plus 400 mM imidazole. Purified protein was desalted, in order to remove imidazole, using a PD-10 column in a buffer containing 20 mM Tris HCl pH 8.0, 10% glycerol, 0.05% DDM and 10 mM DTE.
The purified human LAT1 was reconstituted by detergent removal approach using the batch-wise method, as previously described. In brief, the initial mixture contained: 4 μg of purified protein, 100 μL of 10% C12E8, 100 μL of 10% egg yolk phospholipids (w/v) in the form of liposomes that were prepared as previously described, 20 mM Tris HCl pH 7.5, and 10 mM L-His in a final volume of 700 μL. This mixture was incubated with 0.5 g of Amberlite XAD-4 for 90 min at 23 °C, 1200 rpm to retain detergent.
To perform transport assays, the external substrate was removed by gel filtration chromatography: 600 μL of proteoliposomes were passed through a Sephadex G-75 column (0.7 cm diameter × 15 cm height) pre-equilibrated with 20 mM Tris HCl pH 7.5 and a concentration of sucrose to balance internal osmolarity. Transport was started adding 5 μM [^3H]-His to proteoliposomes and stopped after 30 min according to the stop inhibitor method, as previously described. In brief, in controls 1.5 µM HgCl2 was added at time zero and radioactivity was subtracted to samples for calculating net transport. After stopping the transport reaction, 100 μL of proteoliposomes was subjected to gel filtration chromatography using a Sephadex G-75 column (0.6 cm diameter × 8 cm height), to separate the external from the internal radioactivity. Proteoliposomes were eluted with 1 mL 50 mM NaCl in 4 mL scintillation mixture and counted. […] Protein concentration was estimated by Chemidoc imaging system1 [104] to calculate the human LAT1 specific activity.

[2] = system: LAT1; settings: experimental value, compared with MM-PBSA prediction
[3] = biological target: T1, recombinant human LAT1; settings: cited from earlier work

Structure (SMILES): COc1ccc(CSCC(N)C(=O)O)cc1Br (stereo not drawn) [Compound 28]
IC50 [1]: 33.2 ± 4.5 µM
inhibition at 100 µM [1]: 80 to 100%
LAT1 inhibition, activity in words [1]: highly active
% Residual Activity [1]: 12.93%
Dose-response analysis, single experiments ([1]; 0.1 [] M compound): 98.56 and 118.69 and 87.20
Dose-response analysis, Mean ([1]; 0.1 [] M compound): 101.48
Dose-response analysis, single experiments ([1]; 0.2 [] M compound): 109.35 and 122.43 and 93.48
Dose-response analysis, Mean ([1]; 0.2 [] M compound): 108.42
Dose-response analysis, single experiments ([1]; 0.5 [] M compound): 112.59 and 110.90 and 85.27
Dose-response analysis, Mean ([1]; 0.5 [] M compound): 102.92
Dose-response analysis, single experiments ([1]; 1 [] M compound): 120.86 and 119.63 and 97.34
Dose-response analysis, Mean ([1]; 1 [] M compound): 112.61
Dose-response analysis, single experiments ([1]; 2.5 [] M compound): 84.89 and 85.98 and 94.20
Dose-response analysis, Mean ([1]; 2.5 [] M compound): 88.36
Dose-response analysis, single experiments ([1]; 5 [] M compound): 79.14 and 103.43 and 83.33
Dose-response analysis, Mean ([1]; 5 [] M compound): 88.63
Dose-response analysis, single experiments ([1]; 10 [] M compound): 96.40 and 89.72 and 73.19
Dose-response analysis, Mean ([1]; 10 [] M compound): 86.44
Dose-response analysis, single experiments ([1]; 25 [] M compound): 57.91 and 52.02 and 47.58
Dose-response analysis, Mean ([1]; 25 [] M compound): 52.51
Dose-response analysis, Mean ([1]; 50 [] M compound): 38.86
Dose-response analysis, Mean ([1]; 100 [] M compound): 24.50

Structure (SMILES): C=CCN(Cc1cccc(OCC(N)=O)c1)Cc1ccccc1C [Compound 15]
% Residual Activity [1]: 92.21%

Structure (SMILES): CC(C)COc1ccc(C(N)CC(=O)O)cc1 (stereo not drawn) [Compound 27]
LAT1 inhibition, activity in words [1]: slightly active
% Residual Activity [1]: 67.96%

Structure (SMILES): CCOc1ccc(Cl)cc1C(C(=O)O)N(C)Cc1cnccn1 (stereo not drawn) [Compound 24]
% Residual Activity [1]: 100.72%

Structure (SMILES): Cc1cc(OC(C)(C)C(=O)NCc2n[nH]c(=O)[nH]2)cc(C)c1Cl [Compound 20]
% Residual Activity [1]: 90.07%

Structure (SMILES): N[C@@H](CCc1cc(Cl)cc(Cl)c1)C(=O)O [Compound 36]
IC50 [1]: 0.64 ± 0.12 µM
inhibition at 100 µM [1]: > 90%
LAT1 inhibition, activity in words [1]: highly active; also recorded: almost complete inhibition
% Residual Activity [1]: 0%
Dose-response analysis, single experiments ([1]; 0.1 [] M compound): 81.30 and 100.31 and 62.08
Dose-response analysis, Mean ([1]; 0.1 [] M compound): 81.23
Dose-response analysis, Mean ([1]; 0.2 [] M compound): 82.32
Dose-response analysis, Mean ([1]; 0.5 [] M compound): 45.71
Dose-response analysis, single experiments ([1]; 1 [] M compound): 38.13 and 55.14 and 40.82
Dose-response analysis, Mean ([1]; 1 [] M compound): 44.70
Dose-response analysis, Mean ([1]; 2.5 [] M compound): 28.38
Dose-response analysis, Mean ([1]; 5 [] M compound): 5.92
Dose-response analysis, single experiments ([1]; 10 [] M compound): 0.00
Dose-response analysis, Mean ([1]; 10 [] M compound): 0.00
Dose-response analysis, Mean ([1]; 25 [] M compound): 13.53
Dose-response analysis, Mean ([1]; 50 [] M compound): 2.08
Dose-response analysis, Mean ([1]; 100 [] M compound): 14.15
times more potent than 1 [1]: ~ 10

Structure (SMILES): N#Cc1c(-c2ccccc2-c2ccco2)cc(-c2cc(C(=O)O)[nH]n2)nc1N [Compound 13]
% Residual Activity [1]: 74.23%

Structure (SMILES): NC1(C(=O)O)CCc2ccccc2C1 (stereo not drawn) [Compound 8, 2-Amino-1,2,3,4-tetrahydro-2-naphthoic acid]
times more potent than 10 [2]: 9

Structure (SMILES): NC1(C(=O)O)CCCC1Cc1ccc(Cl)cc1 (stereo not drawn) [Compound 32]
LAT1 inhibition, activity in words [1]: moderately active; also recorded: modest affinity
% Residual Activity [1]: 53.11%

Structure (SMILES): N[C@@H](CSC(c1ccccc1)(c1ccccc1)c1ccccc1)C(=O)O [Compound 39]
inhibition at 100 µM [1]: 80 to 90%
% Residual Activity [1]: 11.76%

Structure (SMILES): CCCCN(Cc1ccsc1)C(=O)c1ccc(NS(=O)(=O)CC)cc1 [Compound 17]
% Residual Activity [1]: 94.75%

Structure (SMILES): CN(Cc1cc(Br)cc(Br)c1N)C1CCCCC1 [Compound 29]
% Residual Activity [1]: 98.42%

Structure (SMILES): FC(F)(F)Oc1ccc(/N=c2\ssnc2Cl)cc1 [Compound 3, (Z)-4-chloro-N-(4-(trifluoromethoxy)phenyl)-5H-1,2,3-dithiazol-5-imine]
inhibition of human LAT1 reconstituted in proteoliposomes, in words [3]: potent inhibition

Structure (SMILES): O=C(O)[C@@H]1C[C@H](n2cc(-c3ccccn3)nn2)CN1 [Compound 25]
% Residual Activity [1]: 94.12%

Structure (SMILES): Cc1cccnc1CN(C)C(C(=O)O)c1ccc(-n2cccn2)cc1 (stereo not drawn) [Compound 26]
% Residual Activity [1]: 89.37%

Structure (SMILES): CCOc1ccccc1CN(Cc1cc(O)c(OC)cn1)C1CC1 [Compound 19]
% Residual Activity [1]: 93.06%

Structure (SMILES): CN(Cc1ccon1)C(C(=O)O)c1ccc(-n2cccn2)cc1 (stereo not drawn) [Compound 23]
% Residual Activity [1]: 96.22%

Structure (SMILES): O=C(c1ccc2[nH]c(CO)nc2c1)N(Cc1ccco1)Cc1cccs1 [Compound 22]
% Residual Activity [1]: 93.36%

Next, values leading:

inhibition at 100 µM [1]: 80 to 90%
% Residual Activity [1]: 13.17%
Structure (SMILES): N[C@@H](Cc1ccc(OCc2c(Cl)cccc2Cl)cc1)C(=O)O [Compound 38]

% Residual Activity [1]: 95.87%
Structure (SMILES): Cc1nnc(-c2ccccc2-c2ccc(CNS(C)(=O)=O)cc2)o1 [Compound 14]

% Residual Activity [1]: 95.1%
Structure (SMILES): CCn1cnnc1C(C)NC(=O)c1ccc2[nH]c(=O)c(=O)[nH]c2c1 (stereo not drawn) [Compound 16]

% Residual Activity [1]: 91.83%
Structure (SMILES): O=C(O)CNC(=O)c1nc(Cl)c2ccccc2c1O [Compound 31]

% Residual Activity [1]: 90.14%
Structure (SMILES): CCOc1ccc(Cl)cc1-c1cccc(OCC(N)=O)c1 [Compound 18]

LAT1 inhibition, activity in words [1]: slightly active
% Residual Activity [1]: 65.31%
Structure (SMILES): N[C@@H](Cc1ccc2ccccc2n1)C(=O)O [Compound 37]

inhibition at 100 µM [1]: 80 to 90%
% Residual Activity [1]: 15.21%
Structure (SMILES): N[C@@H](Cc1cccc(C(F)(F)F)c1)C(=O)O [Compound 41]

LAT1 inhibition, activity in words [1]: slightly active
% Residual Activity [1]: 77.12%
Structure (SMILES): NC(Cc1cn(-c2ccccc2)nn1)C(=O)O (stereo not drawn) [Compound 34]

inhibition at 100 µM [1]: 80 to 90%
% Residual Activity [1]: 11.34%
Structure (SMILES): N[C@@H](Cc1cn(Cc2ccccc2)cn1)C(=O)O [Compound 40]

% Residual Activity [1]: 85.14%
Structure (SMILES): Cc1sc2ccccc2c1CN1CCCn2nc(C(O)CO)cc2C1 (stereo not drawn) [Compound 21]

inhibition at 100 µM [1]: 80 to 90%
LAT1 inhibition, activity in words [1]: highly active
% Residual Activity [1]: 11.78%
Structure (SMILES): NC(Cc1cccc(OCc2ccccc2)c1)C(=O)O (stereo not drawn) [Compound 35]

% Residual Activity [1]: 94.08%
Structure (SMILES): CN1CCCC(n2nc(Cc3ccc(Cl)cc3)c3ccccc3c2=O)CC1 (stereo not drawn) [Compound 30]

IC50 [1]: 1.48 ± 0.27 µM
inhibition at 100 µM [1]: > 90%
LAT1 inhibition, activity in words [1]: almost complete inhibition
% Residual Activity [1]: 7.83%
Dose-response analysis, single experiments ([1]; 0.1 [] M compound): 91.01 and 109.97 and 91.55
Dose-response analysis, Mean ([1]; 0.1 [] M compound): 97.51
Dose-response analysis, single experiments ([1]; 0.2 [] M compound): 77.34 and 82.24 and 73.67
Dose-response analysis, Mean ([1]; 0.2 [] M compound): 77.75
Dose-response analysis, single experiments ([1]; 0.5 [] M compound): 72.30 and 76.32 and 64.01
Dose-response analysis, Mean ([1]; 0.5 [] M compound): 70.88
Dose-response analysis, single experiments ([1]; 1 [] M compound): 64.39 and 51.09 and 41.55
Dose-response analysis, Mean ([1]; 1 [] M compound): 52.34
Dose-response analysis, single experiments ([1]; 2.5 [] M compound): 42.45 and 36.45 and 24.15
Dose-response analysis, Mean ([1]; 2.5 [] M compound): 34.35
Dose-response analysis, Mean ([1]; 5 [] M compound): 29.11
Dose-response analysis, Mean ([1]; 10 [] M compound): 18.24
Dose-response analysis, Mean ([1]; 25 [] M compound): 21.07
Dose-response analysis, single experiments ([1]; 50 [] M compound): 12.95 and 13.71 and 13.30
Dose-response analysis, Mean ([1]; 50 [] M compound): 13.32
Dose-response analysis, Mean ([1]; 100 [] M compound): 14.52
times more potent than 1 [1]: ~four times more potent
Structure (SMILES): N[C@@H](Cc1c[nH]c2ccc(OCc3ccccc3)cc12)C(=O)O [Compound 42]

inhibition at 100 µM [1]: 80 to 90%
LAT1 inhibition, activity in words [1]: highly active
% Residual Activity [1]: 17.86%
Structure (SMILES): NC(CSCc1cccc2ccccc12)C(=O)O (stereo not drawn) [Compound 33]

— article PMC6337383, “Discovery of Potent Inhibitors for the Large Neutral Amino Acid Transporter 1 (LAT1) by Structure-Based Methods” (International Journal of Molecular Sciences, 2018)
